Test results taken from the supplement of paper PMC10307832.

Experiments:
Test in all cases: relative viability (nuclei count vs DMSO), 5 days (fraction); higher = more cells survive
[1] = compound: CC1(C)CNc2cc(NC(=O)c3cccnc3NCc3ccncc3)ccc21 [Motesanib] + Nc1ncn([C@H]2C[C@H](O)[C@@H](CO)O2)c(=O)n1 [Decitabine] (partner 2 µM)
In short: (§1)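 Cells from lung cancer lines were seeded into 1536-well plates and, one day later, dosed by pin tool. Treatments were either a single drug or a fixed dose of an anchor drug with five library-drug doses (not always all listed) in √10 steps. After 5 days, nuclei were stained in a one-step fixation (final 0.05% Triton X-100, 1% formaldehyde, 1 ug/ml Hoechst) and counted on 4× images, and relative viability is the treated-to-vehicle nuclei ratio, as the median of duplicate plates.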

[2] = compound: C[C@@]1(C(=O)Nc2ccc(F)nc2)CCCN1c1nc(Nc2cc(C3CC3)n[nH]2)c2cccn2n1 + COc1cccc2cc(-c3nc([C@H]4CC[C@H](C(=O)O)CC4)n4ncnc(N)c34)[nH]c12 [OSI-027] (partner 0.5 µM)
In short: as §1

[3] = compound: CC1(C)CNc2cc(NC(=O)c3cccnc3NCc3ccncc3)ccc21 [Motesanib] + COc1cccc2cc(-c3nc([C@H]4CC[C@H](C(=O)O)CC4)n4ncnc(N)c34)[nH]c12 [OSI-027] (partner 0.5 µM)
In short: as §1

[4] = compound: CC1(C)CNc2cc(NC(=O)c3cccnc3NCc3ccncc3)ccc21 [Motesanib] + C[C@@H](Oc1cc(-c2cnn(C3CCNCC3)c2)cnc1N)c1c(Cl)ccc(F)c1Cl [Crizotinib] (partner 1 µM)
In short: as §1

Cell Line	relative viability ([1]; first compound 0.01 µM)	relative viability ([1]; first compound 0.03162 µM)	relative viability ([1]; first compound 0.1 µM)	relative viability ([1]; first compound 0.3162 µM)	relative viability ([1]; first compound 1 µM)	relative viability ([2]; first compound 0.04 µM)	relative viability ([2]; first compound 0.1265 µM)	relative viability ([2]; first compound 0.4 µM)	relative viability ([2]; first compound 1.265 µM)	relative viability ([3]; first compound 0.01 µM)	relative viability ([3]; first compound 0.03162 µM)	relative viability ([3]; first compound 0.1 µM)	relative viability ([3]; first compound 0.3162 µM)	relative viability ([3]; first compound 1 µM)	relative viability ([4]; first compound 0.01 µM)	relative viability ([4]; first compound 0.03162 µM)	relative viability ([4]; first compound 0.1 µM)	relative viability ([4]; first compound 0.3162 µM)	relative viability ([4]; first compound 1 µM)
NCI-H1993	0.598	0.568	0.609	0.657	0.659	0.545	0.533	0.665	0.605	0.526	0.554	0.552	0.543	0.557	0.964	0.848	0.842	0.824	0.865
NCI-H520	0.554	0.538	0.626	0.613	0.669	0.328	0.297	0.257	0.22	0.29	0.226	0.231	0.24	0.253	0.665	0.792	0.697	0.662	0.725
NCI-H647	0.43	0.441	0.488	0.542	0.535	0.574	0.404	0.484	0.734	0.848	0.528	0.578	0.717	0.557	1	1.06	1.2	1.19	0.964
NCI-H1792	0.48	0.642	0.594	0.657	0.878	0.303	0.828	0.199	0.212	–	0.65	0.723	0.824	0.651	0.931	0.92	1.01	1.05	0.968
SK-LU-1	0.676	0.649	0.823	0.831	0.824	0.252	0.176	0.198	0.219	0.35	0.36	0.401	0.41	0.394	0.961	0.935	0.826	0.897	0.988
ChaGo-K-1	0.506	0.556	0.544	0.661	0.607	0.402	0.252	0.317	0.291	0.637	0.474	0.495	0.597	0.563	–	1.16	1.1	1.18	1.15
NCI-H1650	0.53	0.352	0.445	0.546	0.564	0.546	0.49	0.442	0.374	0.747	0.688	0.725	0.562	0.586	0.91	–	0.975	0.93	1.02
NCI-H2009	0.394	0.369	0.394	0.38	0.463	0.634	0.371	0.403	0.42	0.646	0.689	0.713	0.593	0.623	0.965	1.09	0.928	1.01	0.943
LOU-NH91	0.829	0.815	0.848	0.838	0.809	0.65	0.665	0.59	0.563	0.717	0.764	0.721	0.722	0.743	0.743	0.746	0.743	0.769	0.729
